# How the values were obtained:
# Format in all cases: cell-based, human
# T cells = assay: Regulatory markers on T cells co-cultured with BiP-treated dendritic cells
# Method: FIG. 11: Co-culture of T cells with BiP-treated dendritic cells (DC) upregulates regulatory markers. […] Mean ±standard deviation of three experiments is shown.
# Intracellular staining was carried out with fixed cells incubated with 1% paraformaldehyde in IF buffer for 5 minutes at room temperature. The cells were washed twice with IF buffer containing 0.3% saponin for permeabilization. 0.3% saponin was then present in all IF buffer used thereafter. CTLA-4/CD152 (BD), FoxP3 (eBioscience) and indolamine 2,3-dioxygenase (Santa Cruz) and cytokines required intracellular staining. Antibodies were added at the pre-determined optimal concentration for 20 mins and then the cells were washed twice with IF buffer and analysed. Isotype controls, IgG1 and IgG2a (Becton Dickinson, Oxford, UK) were used in parallel. Cells were analysed on a FACScan cytometer using Cellquest software (Becton Dickinson, Oxford, UK).
# T cells were purified from peripheral blood mononuclear cells and set up in culture with either allogeneic or autologous dendritic cells, which had been washed and irradiated, at a ratio of 10 T cells:1 DC. The cells were co-cultured in a 24 well plate in 1 ml/well, in RPMI 1640 supplemented with 10% foetal calf serum, for 4 days then the T cells were removed and washed before being investigated for the presence of T regulatory cells (see below)
# Immunofluorescent staining was performed, as described previously (39), on DC harvested at day 7, T cells after 4 days co-culture with DC. Saturating concentrations of fluorescein isothiocyanate (FITC)-, phycoerythrin (PE) or peridium chlorophyll (Per-CP)-conjugated mAb were added recognizing CD14, CD86, CD80, HLA-DR, CD11c, CD1a, CD83, CD85j, IL-10 receptor; purity of the negatively selected MO and T cells was checked using CD3, CD4, CD14, CD20 and CD57 (all from Becton Dickinson/PharMingen (BD), Oxford, UK). Intracellular staining was carried out following fixation of cells with 1% paraformaldehyde for 5 minutes. Cells were then washed with immunofluorescence buffer (PBS/0.1% BSA/0.05% azide) containing 0.3% saponin. 0.3% saponin was then present in all solutions thereafter. CD152/CTLA-4 (BD, Oxford UK) and IDO (Santa Cruz, Autogen Bioclear, UK) were intracellular stains. Isotype controls, IgG1 and IgG2a (BD, Oxford, UK) were used in parallel. Cells were analysed on a FACScan/FACScalibur cytometers using Cellquest software (BD, Oxford, UK).
# IL-10 = IL-10 production by dendritic cell cultures (ELISA); conditions: 3d GM-CSF and IL-4 with BiP 20 μg/ml; inhibitors 10 μM, anti-IL-10 added at day 0 (FIG. 13D)
# Method: (§1) Supernatant samples were collected on day 1, 3 and 7 for iDC and from the final cultures of the T cells taken from the iDC/mDC-T cell allogeneic test system and set up with autologous cells to determine if there was any regulatory activity. The samples were aliquoted and frozen at −70° C. until required. Production IL-10 was quantified by ELISA using paired antibodies and recombinant standards (PharMingen, Oxford, UK) according to the recommendations of the manufacturer. In addition some were analysed by cytometric bead assay (BD, Oxford, UK) according to the manufacturers instructions.
# (§2) To neutralize IL-10 within the cultures anti-IL-10 antibody (ATCC, Rockville, USA) was added at day 0 (5 μg/ml) to GM-CSF and IL-4 treated cultures in the presence and absence of BiP (20 μg/ml). Two specific cell-permeable inhibitors of the MAPK intracellular signalling pathways were used. SB203580 (SB)(10 μM)((Calbiochem, Darmstadt, Germany) inhibits p38 MAPK, and PD98059 (PD) (10 μM)(Calbiochem), an inhibitor of MAPK extracellular signal regulated kinase (ERK), were tested. MO were pre-treated with the inhibitors for 2 h before adding GM-CSF and IL-4 in the presence or absence of BiP.
# as §1, with “of the pro-inflammatory cytokine, TNFα, and the anti-inflammatory cytokine, IL-10,” for “IL-10”
# allogeneic T cells = assay: Allogeneic proliferative response to early BiP treated DC (tritiated thymidine uptake); conditions: early DC 72 h; inhibitors 10 μM 2 h pre-treatment of monocytes; anti-IL-10 neutralizing antibody (FIG. 13A, B)
# Method: Allogeneic responses by T cells in culture with irradiated (3,000 rads) early DC (eDC), after only 3d in culture with GM-CSF and IL-4 in the presence or absence of BiP (20 μg/ml) at a ratio of 10:1 PBMC:DC (105:10^4 cells/well). The results are shown as an allogeneic proliferative response (A) following addition of neutralizing anti-IL-10 ( 1/100 dilution) antibody and (B) the pre-treatment (2 h) of monocytes (MO) with p38 inhibitor, SB203580 (SB)(10 μM) or the ERK1/2 inhibitor, PD 98059 (PD)(10 μM), prior to the addition of GM-CSF and IL-4 to the cultures. The proliferation of PBMC to early DC following (C) the addition of BiP 24 h post addition of GM-CSF and IL-4. Proliferation was measured by uptake of tritiated thymidine and recorded as counts per minute (cpm). ELISA was used to detect IL-10 (D) in the culture supernatants and (E) by 7d cultured iDC/iDC(BiP) and fully matured mDC/mDC(BiP) differentiated as described in following 7d culture in GM-CSF and IL-4 with LPS (500 ng/ml) added for the final 2d.
# as §2
structure (smiles),measurement,setting,value
"Cn1cc(C[C@H](N)C(=O)O)c2ccccc21 [1MT, 1 methyl tryptophan, reference compound]",proliferation of T cells in an allogeneic response after co-culture with 1MT,T cells; 1MT 200 μM added to co-cultures of T cells with autologous mDC or mDC(BiP),increased proliferation by the T cells
same,T cell expression of intracellular CTLA-4 in the presence of 1MT,"T cells; 1MT 200 μM in mDC/mDC(BiP)-T cell co-cultures, n=3",significant reduction in T cell expression of CTLA-4
"COc1cccc(-c2cc(=O)c3ccccc3o2)c1N [PD98059, reference compound]",IL-10 production by early DC(BiP) cultures,IL-10,did not inhibit IL-10 production
same,reversal of BiP's inhibitory activity on the allogeneic response,allogeneic T cells,could not
"C[S+]([O-])c1ccc(-c2nc(-c3ccncc3)c(-c3ccc(F)cc3)[nH]2)cc1 (stereo not drawn) [SB203580, reference compound]",IL-10 production by early DC(BiP) cultures,IL-10,not detected
same,reversal of BiP's inhibitory activity on the allogeneic response,allogeneic T cells,totally reversed BiP's inhibitory activity

# From patent US20080155704A1, “Methods and Compositions for Determining in vivo Activity of BiP” (King's College London, priority 2006, published 2008)
